From US20130109687A1, “METHODS OF TREATING HIV INFECTION: INHIBITION OF DNA DEPENDENT PROTEIN KINASE” (priority 2010, published 2013)
“Also recorded” adds a separate entry of the source. Peptide text beside a SMILES is read from it. * marks the point of attachment. Cbz = O=C(OCc1ccccc1)*; CH2F = FC*

Experiments:
[1] = test system: primary human CD4+ T cells infected with HIV-189.6; experiment: Viability (Annexin V / ViVid) of primary CD4+ T cells infected with HIV-189.6; assay type: cell-based; settings: primary CD4+ lymphocytes, wild type HIV-189.6; NU7026 vs DMSO vehicle; 6 days after infection
Method: Cell cycle analysis in 293T cells was performed on ethanol-fixed cells using the propidium iodide staining method after transduction with lentiviral vectors encoding wild type or mutant VPR. Cell debris was excluded from the analysis, and the DNA content of cells below the diploid level, sub-G1, was used to calculate the apoptosis rate. The association of VPR with VprBP and DNA-PK was determined by immunoprecipitation. Briefly, whole cell extracts were prepared in lysis buffer and incubated with the relevant antibodies, concentrated on Protein G beads, and analyzed by Western blotting. HIV-1 viral stocks were generated by transfecting 293T cells with the HIV-189.6 wild type and IVPR plasmids followed by propagation in CEMx174 cells as previously described^16. CD4^+ T cells were isolated from elutriated lymphocytes using magnetic bead purification, activated and infected as described in Methods. […]
CD4^+ T lymphocytes were isolated from elutriated lymphocytes prepared from blood of healthy donors by negative selection with a CD4^+ T-cell isolation kit II (Miltenyi Biotech) according to the manufacturer's instructions. The purity of the isolated CD4^+ T cells was assessed by fluorescence-activated cell sorting (FACS) analysis for CD4 (BD-Pharmingen) and 95% of the cells were CD4^+ upon isolation. […]

293T cells = experiment: VPR-induced apoptosis and cell cycle analysis by propidium iodide DNA content in 293T cells; assay type: cell-based, human
Method: Cell cycle analysis in 293T cells was performed on ethanol-fixed cells using the propidium iodide staining method after transduction with lentiviral vectors encoding wild type or mutant VPR. Cell debris was excluded from the analysis, and the DNA content of cells below the diploid level, sub-G1, was used to calculate the apoptosis rate. The association of VPR with VprBP and DNA-PK was determined by immunoprecipitation. Briefly, whole cell extracts were prepared in lysis buffer and incubated with the relevant antibodies, concentrated on Protein G beads, and analyzed by Western blotting. HIV-1 viral stocks were generated by transfecting 293T cells with the HIV-189.6 wild type and IVPR plasmids followed by propagation in CEMx174 cells as previously described^16. CD4^+ T cells were isolated from elutriated lymphocytes using magnetic bead purification, activated and infected as described in Methods. For siRNA transfections in CD4^+ lymphocytes, isolated CD4 cells were transduced by nucleofection. In some experiments, cells were treated with either DMSO or the DNA-PK inhibitor NU7026 (Sigma) during the infection period. Viability of infected primary CD4^+ T cells was performed using combined staining with Annexin V-APC (BD Pharmigen) and the amine reactive viability dye ViVid (Invitrogen). Flow cytometry was performed with a LSR II cell analyzer.
CEMX174 cells were cultured in RPMI with 10% FBS and antibiotics (penicillin and streptomycin). HEK293T cells were cultured in DMEM supplemented with 10% FBS and antibiotics (penicillin and streptomycin). For immunoprecipitation experiments HEK293T cells were transfected with 3 μg of either […] or 102-HAVpr Q65R using the LipofectAMINE 2000 reagent (Life Technologies, Inc.). For cell cycle analysis HEK293T cells were harvested, washed with ice-cold PBS and resuspended in 70% cold ethanol while vortexing. The cells were incubated at −20° C. overnight, washed once with PBS and resuspended in PBS containing 25 μg/ml propidium iodide and 100 μg/ml RNaseA for 15 minutes at 25° C. Stained cells were then analyzed by flow cytometry.
Lentivirus vectors were produced by transiently transfecting HEK293T cells using the calcium phosphate method. […]. Virus supernatants were collected at 48 h post transfection. The harvested supernatants were cleared by centrifugation, concentrated and frozen at −80° C. for storage.

DNA-PK = target: T1, DNA-PK (Homo sapiens, UniProt P78527); experiment: Western blot of γH2AX (H2AX phosphorylation) in cells transfected with VPR-encoding plasmid; assay type: cell-based; settings: indicated concentrations of inhibitor (FIG. 2d)
T1 construct: endogenous in cells; host or cells: HEK293T (inferred; only VPR is transfected, DNA-PK is the cells' own)
Method: FIG. 2d, VPR induction of DNA-PKcs autophosphorylation (left, lanes 1,2) and Western blot analysis of γH2AX from cells transfected with a VPR-encoding plasmid and treated with the indicated concentrations of DNA-PK inhibitor NU7026 (right, lanes 3-7). Western blot analysis of autophosphorylated DNA-PKcs was performed using anti-phosphoserine 2056 DNA-PKcs from cells transfected with an empty vector or a VPR-encoding plasmid. Cell lysates were subjected to Western blotting using the indicated antibodies.
Cell extracts for Western blots and immunoprecipitations were made in cell lysis buffer (Cell Signal). Immunoprecipitations were performed overnight at 4° C. using normal rabbit serum, anti-VprBP or anti-DNA-PK polyclonal antibodies (Bethyl Laboratories). Protein G beads (Invitrogen) were then added for 2 h, washed three times with 1× lysis buffer, boiled and loaded onto 4-15% polyacrylamide Tris Glycine gels (BioRad). The primary antibodies used for Western blotting were anti-DNA-PK, anti-VprBP (Bethyl Laboratories), anti-actin (Sigma), anti-γH2AX (Cell Signaling), anti-HA (Santa Cruz Biotechnology), anti-Ku70, and anti-Ku80 (BD Transduction Laboratories).

HIV-189.6 = experiment: Frequency of infection by p24 positivity, flow cytometry; assay type: cell-based, HIV-1; settings: primary CD4+ lymphocytes, wild type HIV-189.6; NU7026 vs DMSO
Method: Purified, activated CD4^+ T cells were infected 2-3 days after isolation. For nucleofected cells, infection was done 36 h after nucleofection. HIV-1 infection of CD4^+ T lymphocytes was performed in 96-well round-bottomed culture plates by combining 10 μl virus stock with 150 μl CD4^+ T lymphocytes (1.5×10^5 cells). The multiplicity of infection was ˜1.0. CD4^+ T lymphocytes were harvested at the indicated times following exposure to virus.
CD4^+ T lymphocytes were harvested for Annexin V, Vivid and intracellular p24-Gag staining at the indicated times following exposure to virus. In brief, the cells were washed and stained with Annexin V-APC (BD Pharmigen) and Vivid (Invitrogen) for 20 min. Cells were washed once, fixed, and permeabilized with Cytoperm/Cytofix (BD Pharmingen) for 20 min. Cells were then stained for p24 Gag (KC-57 fluorescein isothiocyanate (FITC); Coulter) for 30 min and washed once in 1× Perm/wash buffer (BD Pharmingen). Flow cytometry was performed with an LSR II cell analyzer (Becton Dickinson), and data analysis was performed with FlowJo software (Tree Star, Inc.)

[2] = 293T cells transduced with VPR lentiviral vector, NU7026 10 μM vs DMSO, 72 h after transduction
[3] = 293T cells transduced with lentiviral vector encoding wild type VPR, 100 μM Z-VAD-fmk vs DMSO

O=c1cc(N2CCOCC2)oc2c1ccc1ccccc12 [NU7026]
direct cell killing by the virus (cell death following HIV infection) [1]: profoundly diminished; also recorded: substantial reduction
G2/M cell cycle arrest (293T cells; [2]): without diminishing
VPR-induced apoptosis (293T cells; [2]): alleviated
VPR induced H2AX phosphorylation (DNA-PK): diminished by this DNA-PK inhibitor in a dose-dependent manner
frequency of infection, p24 positivity (HIV-189.6): remained unchanged

COC(=O)C[C@H](NC(=O)[C@H](C)NC(=O)[C@@H](NC(=O)OCc1ccccc1)C(C)C)C(=O)CF [zVAD-fmk] (Cbz-Val-Ala-Asp(OMe)-CH2F)
G2/M blockade (293T cells; [3]): did not reverse
VPR-induced apoptosis (293T cells; [3]): significantly reduced
